Results published in patent US20260055079A1, “PHTHALAZINONE COMPOUNDS AS PARP7 INHIBITORS” (AZKARRA THERAPEUTICS, INC., priority 2022, published 2026).
Like-named read-outs stand apart in the source and are kept apart here.

Experiments:
PARP2 = PARP2 (Homo sapiens (Human), UniProt Q9UGN5); experiment: PARP2 biochemical assay
His-GST-PARP7 = His-GST-PARP7 (Homo sapiens (Human), UniProt Q7Z3E1); experiment: PARP7 biochemical assay; conditions: read-out: PARP7 IC50
[1] = tested on: HARA (human lung squamous cell carcinoma) cells; experiment: Cell proliferation assay (CellTiter-Glo), HARA; format: cell-based; conditions: 6 days, CellTiter-Glo, read-out: HARA GI50
[2] = tested on: NCI-H1373 (human lung adenocarcinoma) cells; experiment: Cell proliferation assay (CellTiter-Glo), NCI-H1373; format: cell-based; conditions: 6 days, CellTiter-Glo, read-out: NCI-H1373 GI50

Chain of His-GST-PARP7 (Q7Z3E1 whole entry): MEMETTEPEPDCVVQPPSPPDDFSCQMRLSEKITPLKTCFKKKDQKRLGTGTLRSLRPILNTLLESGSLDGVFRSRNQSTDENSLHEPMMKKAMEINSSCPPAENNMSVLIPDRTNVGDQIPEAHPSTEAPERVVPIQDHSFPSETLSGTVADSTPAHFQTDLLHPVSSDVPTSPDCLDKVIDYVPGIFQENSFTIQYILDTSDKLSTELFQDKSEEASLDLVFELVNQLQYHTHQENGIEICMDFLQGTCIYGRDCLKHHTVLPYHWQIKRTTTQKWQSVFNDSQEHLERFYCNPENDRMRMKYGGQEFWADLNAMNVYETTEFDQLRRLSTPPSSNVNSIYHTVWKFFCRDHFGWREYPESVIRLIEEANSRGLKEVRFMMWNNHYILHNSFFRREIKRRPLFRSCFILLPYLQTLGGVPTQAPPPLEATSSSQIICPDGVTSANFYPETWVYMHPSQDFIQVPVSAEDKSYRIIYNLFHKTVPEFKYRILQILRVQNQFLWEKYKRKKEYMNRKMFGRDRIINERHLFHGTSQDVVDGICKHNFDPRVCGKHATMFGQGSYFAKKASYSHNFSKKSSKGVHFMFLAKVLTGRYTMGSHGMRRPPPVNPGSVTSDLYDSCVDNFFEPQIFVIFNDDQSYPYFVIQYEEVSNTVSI
Chain of PARP2 (Q9UGN5 whole entry): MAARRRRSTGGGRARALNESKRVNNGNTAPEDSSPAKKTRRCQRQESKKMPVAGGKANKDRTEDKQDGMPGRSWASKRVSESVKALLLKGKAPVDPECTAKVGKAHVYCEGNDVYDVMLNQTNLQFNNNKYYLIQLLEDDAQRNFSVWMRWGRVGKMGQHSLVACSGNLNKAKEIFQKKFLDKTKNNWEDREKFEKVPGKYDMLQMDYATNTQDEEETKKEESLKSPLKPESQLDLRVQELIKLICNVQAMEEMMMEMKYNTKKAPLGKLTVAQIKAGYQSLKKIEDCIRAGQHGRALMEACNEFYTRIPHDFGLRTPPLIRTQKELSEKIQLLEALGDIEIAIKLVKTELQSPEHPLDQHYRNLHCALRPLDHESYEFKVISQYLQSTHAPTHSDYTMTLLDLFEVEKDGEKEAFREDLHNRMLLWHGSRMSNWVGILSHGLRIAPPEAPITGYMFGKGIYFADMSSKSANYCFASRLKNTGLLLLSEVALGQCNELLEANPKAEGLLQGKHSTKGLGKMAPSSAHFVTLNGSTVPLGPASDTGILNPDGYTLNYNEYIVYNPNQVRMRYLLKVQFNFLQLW

Compound: 4-(4-Fluoro-3-(4-(5-(trifluoromethyl)pyrimidin-2-yl)piperazine-1-carbonyl)benzyl)-6-isobutylphthalazin-1(2H)-one [Example 44]
- IC50 (PARP2; read-out: PARP2 IC50): 0.05 to 0.1 µM
- IC50 (His-GST-PARP7): < 0.05 µM

Compound: N#Cc1ccc(N2CCN(c3noc4ccc(Cc5n[nH]c(=O)c6ccc(OC7CCC7)cc56)cc34)CC2)nc1 [Example 211, 6-(4-(5-((7-cyclobutoxy-4-oxo-3,4-dihydrophthalazin-1-yl)methyl)benzo[d]isoxazol-3-yl)piperazin-1-yl)nicotinonitrile]
- GI50 ([1]; Homo sapiens, 144 h): 1 to 5 µM
- GI50 ([2]; Homo sapiens, NCI-H1373, 144 h): 1 to 5 µM
- IC50 (His-GST-PARP7): 0.1 to 0.5 µM

Compound: O=C(c1cc(Cc2n[nH]c(=O)c3ccc(C#CC(F)(F)F)cc23)ccc1F)N1CCN(c2ncc(C(F)(F)F)cn2)CC1 [Example 49, 4-(4-Fluoro-3-(4-(5-(trifluoromethyl)pyrimidin-2-yl)piperazine-1-carbonyl)benzyl)-6-(3,3,3-trifluoroprop-1-yn-1-yl)phthalazin-1(2H)-one]
- IC50 (PARP2; read-out: PARP2 IC50): 0.1 to 0.5 µM
- IC50 (His-GST-PARP7): 0.1 to 0.5 µM

Compound: N#Cc1cnc(N2CCN(C(=O)c3cc(Cc4n[nH]c(=O)c5ccc(OC6CCC6)cc45)ccc3F)CC2)cc1C(F)(F)F [Example 132, 6-(4-(5-((7-cyclobutoxy-4-oxo-3,4-dihydrophthalazin-1-yl)methyl)-2-fluorobenzoyl)piperazin-1-yl)-4-(trifluoromethyl)nicotinonitrile]
- GI50 ([1]; Homo sapiens, 144 h): 1 to 5 µM
- GI50 ([2]; Homo sapiens, NCI-H1373, 144 h): < 0.1 µM

Compound: N#Cc1ccc(N2CCN(C(=O)c3cc(Cc4n[nH]c(=O)c5ccc(C#CC6CC6)cc45)ccc3F)CC2)nc1 [Example 37, 6-(4-(5-((7-(Cyclopropylethynyl)-4-oxo-3,4-dihydrophthalazin-1-yl)methyl)-2-fluorobenzoyl)piperazin-1-yl)nicotinonitrile]
- IC50 (PARP2; read-out: PARP2 IC50): 0.5 to 2 µM
- IC50 (His-GST-PARP7): 0.1 to 0.5 µM

Compound: CC#Cc1ccc2c(=O)[nH]nc(Cc3ccc(F)c(C(=O)N4CCN(c5cc(C(=O)NC)ccn5)CC4)c3)c2c1 [Example 56, 2-(4-(2-Fluoro-5-((4-oxo-7-(prop-1-ynyl)-3,4-dihydrophthalazin-1-yl)methyl)benzoyl)piperazin-1-yl)-N-methylisonicotinamide]
- GI50 ([1]; Homo sapiens, 144 h): > 5 µM
- GI50 ([2]; Homo sapiens, NCI-H1373, 144 h): 0.1 to 1 µM
- IC50 (His-GST-PARP7): < 0.05 µM

Compound: O=C(c1cc(Cc2n[nH]c(=O)c3ccc(OC4CCC4)cc23)ccc1F)N1CCCN(C(=O)C2CC2)CC1 [Example 101, 6-Cyclobutoxy-4-(3-(4-(cyclopropanecarbonyl)-1,4-diazepane-1-carbonyl)-4-fluorobenzyl)phthalazin-1(2H)-one]
- GI50 ([1]; Homo sapiens, 144 h): > 5 µM
- GI50 ([2]; Homo sapiens, NCI-H1373, 144 h): > 5 µM
- IC50 (His-GST-PARP7): < 0.05 µM

Compound: N#Cc1ccc(N2CCN(c3noc4c(Cc5n[nH]c(=O)c6ccc(OC7CCC7)cc56)cccc34)CC2)nc1 [Example 208, 6-(4-(7-((7-Cyclobutoxy-4-oxo-3,4-dihydrophthalazin-1-yl)methyl)benzo[d]isoxazol-3-yl)piperazin-1-yl)nicotinonitrile]
- GI50 ([1]; Homo sapiens, 144 h): 1 to 5 µM
- GI50 ([2]; Homo sapiens, NCI-H1373, 144 h): 1 to 5 µM
- IC50 (His-GST-PARP7): 0.1 to 0.5 µM

Compound: O=C(c1cc(Cc2n[nH]c(=O)c3ccc(OC4CCC4)cc23)ccc1F)N1CCN(c2ccc(C(F)(F)F)cn2)CC1 [Example 155, 6-cyclobutoxy-4-(4-fluoro-3-(4-(5-(trifluoromethyl)pyridin-2-yl)piperazine-1-carbonyl)benzyl)phthalazin-1(2H)-one]
- GI50 ([1]; Homo sapiens, 144 h): 1 to 5 µM
- GI50 ([2]; Homo sapiens, NCI-H1373, 144 h): < 0.1 µM
- IC50 (His-GST-PARP7): < 0.05 µM

Compound: CCc1ccc2c(=O)[nH]nc(Cc3ccc(F)c(C(=O)N4CCN(c5ncc(C(F)(F)F)cn5)CC4)c3)c2c1 [Example 43, 6-Ethyl-4-(4-fluoro-3-(4-(5-(trifluoromethyl)pyrimidin-2-yl)piperazine-1-carbonyl)benzyl)phthalazin-1(2H)-one]
- IC50 (PARP2; read-out: PARP2 IC50): 0.1 to 0.5 µM

Compound: Cc1cc(N2CCN(C(=O)c3cc(Cc4n[nH]c(=O)c5ccc(OC6CCC6)cc45)ccc3F)CC2)ncc1C#N [Example 134, 6-(4-(5-((7-cyclobutoxy-4-oxo-3,4-dihydrophthalazin-1-yl)methyl)-2-fluorobenzoyl)piperazin-1-yl)-4-methylnicotinonitrile]
- GI50 ([1]; Homo sapiens, 144 h): 0.1 to 1 µM
- GI50 ([2]; Homo sapiens, NCI-H1373, 144 h): < 0.1 µM
- IC50 (His-GST-PARP7): < 0.05 µM

Compound: O=C(c1cc(Cc2n[nH]c(=O)c3ccc(OC4CCC4)cc23)ccc1F)N1CCCN(c2ncc(C(F)(F)F)cn2)CC1 [Example 98, 6-Cyclobutoxy-4-(4-fluoro-3-(4-(5-(trifluoromethyl)pyrimidin-2-yl)-1,4-diazepane-1-carbonyl)benzyl)phthalazin-1(2H)-one]
- GI50 ([1]; Homo sapiens, 144 h): > 5 µM
- GI50 ([2]; Homo sapiens, NCI-H1373, 144 h): 0.1 to 1 µM
- IC50 (His-GST-PARP7): < 0.05 µM

Compound: N#Cc1ccc(N2CCN(C(=O)c3cc(Cc4n[nH]c(=O)c5ccc(CCC(F)(F)F)cc45)ccc3F)CC2)nc1 [Example 25, 6-(4-(2-Fluoro-5-((4-oxo-7-(3,3,3-trifluoropropyl)-3,4-dihydrophthalazin-1-yl)methyl)benzoyl)piperazin-1-yl)nicotinonitrile]
- IC50 (PARP2; read-out: PARP2 IC50): 0.1 to 0.5 µM

Compound: 6-(4-(5-((7-Cyclobutoxy-4-oxo-3,4-dihydrophthalazin-1-yl)methyl)-2-fluorobenzoyl)-6,6-difluoro-1,4-diazepan-1-yl)nicotinonitrile [Example 125]
- GI50 [1]: > 5 µM
- GI50 [2]: 0.1 to 1 µM
- IC50 (His-GST-PARP7): < 0.05 µM

Compound: COc1nc(N2CCN(C(=O)c3cc(Cc4n[nH]c(=O)c5ccc(OC6CCC6)cc45)ccc3F)CC2)ccc1C#N [Example 136, 6-(4-(5-((7-cyclobutoxy-4-oxo-3,4-dihydrophthalazin-1-yl)methyl)-2-fluorobenzoyl)piperazin-1-yl)-2-methoxynicotinonitrile]
- GI50 ([1]; Homo sapiens, 144 h): > 5 µM
- GI50 ([2]; Homo sapiens, NCI-H1373, 144 h): 0.1 to 1 µM
- IC50 (His-GST-PARP7): 0.05 to 0.1 µM

Compound: N#Cc1ccc(N2CCN(C(=O)c3cc(Cc4n[nH]c(=O)c5cccnc45)ccc3F)CC2)nc1 [Example 92, 6-(4-(2-Fluoro-5-((5-oxo-5,6-dihydropyrido[2,3-d]pyridazin-8-yl)methyl)benzoyl)piperazin-1-yl)nicotinonitrile]
- GI50 ([1]; Homo sapiens, 144 h): > 5 µM
- GI50 ([2]; Homo sapiens, NCI-H1373, 144 h): > 5 µM
- IC50 (His-GST-PARP7): 0.05 to 0.1 µM

Compound: O=C(c1cc(Cc2n[nH]c(=O)c3ccc(OC4CCC4)cc23)ccc1F)N1CCN(c2cnc(C(F)(F)F)cn2)CC1 [Example 160, 6-cyclobutoxy-4-(4-fluoro-3-(4-(5-(trifluoromethyl)pyrazin-2-yl)piperazine-1-carbonyl)benzyl)phthalazin-1(2H)-one]
- GI50 ([1]; Homo sapiens, 144 h): 1 to 5 µM
- GI50 ([2]; Homo sapiens, NCI-H1373, 144 h): < 0.1 µM
- IC50 (His-GST-PARP7): < 0.05 µM

Compound: O=C(c1cc(Cc2n[nH]c(=O)c3ccc(OC4CCC4)cc23)ccc1F)N1CCN(c2ncc(C3CC3)cn2)CC1 [Example 162, 6-cyclobutoxy-4-(3-(4-(5-cyclopropylpyrimidin-2-yl)piperazine-1-carbonyl)-4-fluorobenzyl)phthalazin-1(2H)-one]
- GI50 ([1]; Homo sapiens, 144 h): 0.1 to 1 µM
- GI50 ([2]; Homo sapiens, NCI-H1373, 144 h): < 0.1 µM
- IC50 (His-GST-PARP7): < 0.05 µM

Compound: N#Cc1ccc(N2CCN(C(=O)c3cc(Cc4n[nH]c(=O)c5ccc(/C=C/C(F)(F)F)cc45)ccc3F)CC2)nc1 [Example 27, (E)-6-(4-(2-Fluoro-5-((4-oxo-7-(3,3,3-trifluoroprop-1-enyl)-3,4-dihydrophthalazin-1-yl)methyl)benzoyl)piperazin-1-yl)nicotinonitrile]
- IC50 (PARP2): 0.05 to 0.1 µM

Compound: O=C(c1cc(Cc2n[nH]c(=O)c3ccc(OC4CCC4)cc23)ccc1F)N1CCN(c2ncc(C(F)(F)F)cn2)CC(F)(F)C1 [Example 126, 6-Cyclobutoxy-4-(3-(6,6-difluoro-4-(5-(trifluoromethyl)pyrimidin-2-yl)-1,4-diazepane-1-carbonyl)-4-fluorobenzyl)phthalazin-1(2H)-one]
- GI50 ([1]; Homo sapiens, 144 h): > 5 µM
- GI50 ([2]; Homo sapiens, NCI-H1373, 144 h): 0.1 to 1 µM
- IC50 (His-GST-PARP7): < 0.05 µM

Compound: O=C(c1cc(Cc2n[nH]c(=O)c3ccc(OC4CCC4)cc23)ccc1F)N1CCN(c2ccc(CO)cn2)CC1 [Example 130, 6-cyclobutoxy-4-(4-fluoro-3-(4-(5-(hydroxymethyl)pyridin-2-yl)piperazine-1-carbonyl)benzyl)phthalazin-1(2H)-one]
- GI50 ([1]; Homo sapiens, 144 h): > 5 µM
- GI50 ([2]; Homo sapiens, NCI-H1373, 144 h): 0.1 to 1 µM
- IC50 (His-GST-PARP7): < 0.05 µM

Compound: COc1cc(C#N)cnc1N1CCN(C(=O)c2cc(Cc3n[nH]c(=O)c4ccc(OC5CCC5)cc34)ccc2F)CC1 [Example 131, 6-(4-(5-((7-cyclobutoxy-4-oxo-3,4-dihydrophthalazin-1-yl)methyl)-2-fluorobenzoyl)piperazin-1-yl)-5-methoxynicotinonitrile]
- GI50 ([1]; Homo sapiens, 144 h): 1 to 5 µM
- GI50 ([2]; Homo sapiens, NCI-H1373, 144 h): 0.1 to 1 µM
- IC50 (His-GST-PARP7): < 0.05 µM

Compound: CC(CC(=O)N1CCN(c2ccc(C#N)cn2)CC1)NCc1n[nH]c(=O)c2ccc(OC3CC3)cc12 (centres unmarked) [Example 196, 6-(4-(3-(((7-Cyclopropoxy-4-oxo-3,4-dihydrophthalazin-1-yl)methyl)amino)butanoyl)piperazin-1-yl)nicotinonitrile]
- GI50 ([1]; Homo sapiens, 144 h): 1 to 5 µM
- GI50 ([2]; Homo sapiens, NCI-H1373, 144 h): 1 to 5 µM
- IC50 (His-GST-PARP7): < 0.05 µM

Compound: N#Cc1cnc(N2CCN(C(=O)c3cc(Cc4n[nH]c(=O)c5ccc(OC6CCC6)cc45)ccc3F)CC2)c(C(F)(F)F)c1 [Example 129, 6-(4-(5-((7-cyclobutoxy-4-oxo-3,4-dihydrophthalazin-1-yl)methyl)-2-fluorobenzoyl)piperazin-1-yl)-5-(trifluoromethyl)nicotinonitrile]
- GI50 ([1]; Homo sapiens, 144 h): 1 to 5 µM
- GI50 ([2]; Homo sapiens, NCI-H1373, 144 h): 1 to 5 µM
- IC50 (His-GST-PARP7): < 0.05 µM

Compound: Cc1nc(N2CCN(C(=O)c3cc(Cc4n[nH]c(=O)c5ccc(OC6CCC6)cc45)ccc3F)CC2)ccc1C#N [Example 133, 6-(4-(5-((7-cyclobutoxy-4-oxo-3,4-dihydrophthalazin-1-yl)methyl)-2-fluorobenzoyl)piperazin-1-yl)-2-methylnicotinonitrile]
- GI50 ([1]; Homo sapiens, 144 h): > 5 µM
- GI50 ([2]; Homo sapiens, NCI-H1373, 144 h): 0.1 to 1 µM
- IC50 (His-GST-PARP7): < 0.05 µM

Compound: CC#Cc1ccc2c(=O)[nH]nc(Cc3ccc(F)c(C(=O)N4CCN(c5ccc(C#N)cn5)CC(F)(F)C4)c3)c2c1 [Example 80, 6-(6,6-Difluoro-4-(2-fluoro-5-((4-oxo-7-(prop-1-ynyl)-3,4-dihydrophthalazin-1-yl)methyl)benzoyl)-1,4-diazepan-1-yl)nicotinonitrile]
- GI50 ([1]; Homo sapiens, 144 h): 1 to 5 µM
- GI50 ([2]; Homo sapiens, NCI-H1373, 144 h): 0.1 to 1 µM
- IC50 (His-GST-PARP7): < 0.05 µM
